What was measured:
MCF7 = test: Antiproliferative activity against human MCF7 cells after 48 hrs by CCK-8 assay; conditions: MCF7, 48 h
[1] = biological target: T1, Protein deacetylase HDAC6 (Homo sapiens, UniProt Q9UBN7); test: Inhibition of HDAC6 (unknown origin) preincubated for 10 mins followed by Ac-Leu-GlyLys(Ac)-AMC substrate addition measured after 30 mins by fluorescence based assay
T1 sequence (Q9UBN7 whole entry): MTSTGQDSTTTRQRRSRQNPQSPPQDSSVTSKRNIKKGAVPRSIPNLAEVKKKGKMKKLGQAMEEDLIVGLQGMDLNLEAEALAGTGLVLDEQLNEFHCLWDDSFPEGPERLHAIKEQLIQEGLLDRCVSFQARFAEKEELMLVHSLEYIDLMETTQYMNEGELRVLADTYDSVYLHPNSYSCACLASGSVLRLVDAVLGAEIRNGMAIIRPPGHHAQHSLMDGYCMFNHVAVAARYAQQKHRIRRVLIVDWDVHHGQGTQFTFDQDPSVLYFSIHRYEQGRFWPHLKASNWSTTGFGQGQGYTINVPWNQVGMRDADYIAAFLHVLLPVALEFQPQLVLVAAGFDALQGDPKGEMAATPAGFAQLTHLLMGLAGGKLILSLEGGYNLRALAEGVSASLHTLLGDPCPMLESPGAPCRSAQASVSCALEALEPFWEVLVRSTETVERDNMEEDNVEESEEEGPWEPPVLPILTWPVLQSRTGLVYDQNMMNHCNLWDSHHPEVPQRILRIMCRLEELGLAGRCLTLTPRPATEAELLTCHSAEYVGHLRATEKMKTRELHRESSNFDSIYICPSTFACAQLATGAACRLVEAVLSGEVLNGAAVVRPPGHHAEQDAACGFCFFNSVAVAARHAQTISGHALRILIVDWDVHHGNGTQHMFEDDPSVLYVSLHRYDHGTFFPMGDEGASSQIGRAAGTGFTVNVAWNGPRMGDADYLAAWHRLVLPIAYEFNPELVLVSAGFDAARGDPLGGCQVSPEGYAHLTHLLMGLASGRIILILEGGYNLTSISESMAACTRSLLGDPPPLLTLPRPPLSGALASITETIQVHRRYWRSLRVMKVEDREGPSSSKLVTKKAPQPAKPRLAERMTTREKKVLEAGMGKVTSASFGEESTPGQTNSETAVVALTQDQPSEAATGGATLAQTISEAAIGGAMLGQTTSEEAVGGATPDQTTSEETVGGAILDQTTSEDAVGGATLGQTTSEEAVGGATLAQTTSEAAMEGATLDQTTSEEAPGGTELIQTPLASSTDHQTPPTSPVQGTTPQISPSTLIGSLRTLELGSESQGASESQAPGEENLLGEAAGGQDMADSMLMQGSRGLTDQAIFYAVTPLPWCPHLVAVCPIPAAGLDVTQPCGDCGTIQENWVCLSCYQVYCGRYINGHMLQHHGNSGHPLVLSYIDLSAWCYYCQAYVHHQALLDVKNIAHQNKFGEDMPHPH

Row | IC50 (MCF7) | IC50 [1] | Structure (SMILES)
1 | 0.0405 µM | – | CCN1CCN(c2ccc(C(=O)Nc3n[nH]c4cc(-c5cccc(OC)c5F)ccc34)cc2)CC1
2 | > 100 µM | 345 nM | CCCOc1cccc(-c2ccc3c(NC(=O)c4ccc(C(=O)NO)cc4)n[nH]c3c2)c1
3 | > 100 µM | 98 nM | O=C(NO)c1ccc(C(=O)Nc2n[nH]c3cc(-c4ccc(Cl)c(F)c4)ccc23)cc1
4 | 9 µM | 34 nM | CCOc1cccc(-c2ccc3c(NC(=O)c4ccc(C(=O)NO)cc4)n[nH]c3c2)c1
5 | > 100 µM | 293 nM | O=C(NO)c1ccc(C(=O)Nc2n[nH]c3cc(-c4cc(Cl)cc(Cl)c4)ccc23)cc1
6 | 28 µM | 40 nM | COc1ccccc1-c1ccc2c(NC(=O)c3ccc(C(=O)NO)cc3)n[nH]c2c1
7 | > 100 µM | 103 nM | O=C(NO)c1ccc(C(=O)Nc2n[nH]c3cc(-c4ccc(C(F)(F)F)cc4)ccc23)cc1
8 | > 100 µM | 58 nM | COc1cccc(-c2ccc3c(NC(=O)c4ccc(C(=O)NO)cc4)n[nH]c3c2)c1F
9 | > 100 µM | 178 nM | O=C(NO)c1ccc(C(=O)Nc2n[nH]c3cc(-c4cc(Cl)ccc4Cl)ccc23)cc1
10 | > 100 µM | 157 nM | O=C(NO)c1ccc(C(=O)Nc2n[nH]c3cc(-c4cccc(Cl)c4Cl)ccc23)cc1
11 | > 100 µM | 78 nM | CC(C)Oc1cccc(-c2ccc3c(NC(=O)c4ccc(C(=O)NO)cc4)n[nH]c3c2)c1
12 | > 100 µM | 218 nM | O=C(NO)c1ccc(C(=O)Nc2n[nH]c3cc(-c4cccc(OC(F)(F)F)c4)ccc23)cc1
13 | > 100 µM | 250 nM | Cc1cc(C)cc(-c2ccc3c(NC(=O)c4ccc(C(=O)NO)cc4)n[nH]c3c2)c1
14 | > 100 µM | 242 nM | COc1cc(OC)cc(-c2ccc3c(NC(=O)c4ccc(C(=O)NO)cc4)n[nH]c3c2)c1
15 | 15.2 µM | 33 nM | COc1ccc(-c2ccc3c(NC(=O)c4ccc(C(=O)NO)cc4)n[nH]c3c2)cc1OC
16 | > 100 µM | 38 nM | O=C(NO)c1ccc(C(=O)Nc2n[nH]c3cc(-c4ccccc4)ccc23)cc1
17 | > 100 µM | 69 nM | O=C(NO)c1ccc(C(=O)Nc2n[nH]c3cc(-c4cccc(Cl)c4)ccc23)cc1
18 | > 100 µM | 64 nM | COc1ccc(F)cc1-c1ccc2c(NC(=O)c3ccc(C(=O)NO)cc3)n[nH]c2c1
19 | > 100 µM | 147 nM | O=C(NO)c1ccc(C(=O)Nc2n[nH]c3cc(-c4ccc(Cl)c(Cl)c4)ccc23)cc1
20 | > 100 µM | 132 nM | COc1cccc(-c2ccc3c(NC(=O)c4ccc(C(=O)NO)cc4)n[nH]c3c2)c1
21 | 45 µM | 65 nM | O=C(NO)c1ccc(C(=O)Nc2n[nH]c3cc(-c4ccccc4F)ccc23)cc1
22 | > 100 µM | 385 nM | O=C(NO)c1ccc(C(=O)Nc2n[nH]c3cc(-c4c(Cl)cccc4Cl)ccc23)cc1
23 | > 100 µM | 281 nM | O=C(NO)c1ccc(C(=O)Nc2n[nH]c3cc(-c4ccc(Cl)cc4)ccc23)cc1
24 | 23 µM | 59 nM | O=C(NO)c1ccc(C(=O)Nc2n[nH]c3cc(-c4ccccc4Cl)ccc23)cc1
25 | 22 µM | 41 nM | COc1ccc(-c2ccc3c(NC(=O)c4ccc(C(=O)NO)cc4)n[nH]c3c2)cc1
26 | 1.4 µM | – | CCCCN(Cc1ccc(C(=O)NO)cc1)C(=O)Nc1ccccc1 [NEXTURASTAT A]

Reference: ChEMBL document CHEMBL4184206, “Design, synthesis and evaluate of novel dual FGFR1 and HDAC inhibitors bearing an indazole scaffold” (Bioorg Med Chem, 2018)
